We go through seven compounds from DBAASP.

Test systems include Escherichia coli C600; Escherichia coli UTI89; Escherichia coli 1005; Candida albicans.
Test in all cases: ≥ marks a high value that may be exact or a test limit, other limits are often not marked, values filed in µg/mL are converted to µM
Assay [1] has as its system Escherichia coli ATCC 11775.
The subject of assay [2] is Staphylococcus aureus ATCC 12600.
The test system of assay [3] is Candida albicans ATCC 14053.
Assay [4] concerns Micrococcus luteus ATCC 49732.
Assay [5] has as its system Bacillus subtilis VKM B-501.
Assay [6] relates to Staphylococcus aureus 209P.
Assay [7] relates to Enterococcus faecium CCT 5079.
In assay [8] the test system is Escherichia coli CCT 1457.
Assay [9] concerns Staphylococcus epidermidis ATCC 12228.
Assay [10] has as its system Micrococcus luteus ATCC 4698.
Assay [11] relates to Enterococcus hirae ATCC 10541.
The subject of assay [12] is Bacillus thuringiensis ATCC 10792.
Assay [13] concerns Staphylococcus aureus CCT 2580.
For assay [14], the system named is Bacillus cereus ATCC 11778.
The test system of assay [15] is Salmonella enterica subsp. enterica serovar Typhimurium ATCC 14028.
The test system of assay [16] is Streptococcus pneumoniae ATCC 11733.
Assay [17] deals with Escherichia coli ATCC 25922.
Assay [18] deals with Staphylococcus aureus CCT 6538.
Assay [19] has as its system Streptococcus mutans AU159.
The test system of assay [20] is Pseudomonas aeruginosa ATCC 15422.
Assay [21] has as its system Staphylococcus aureus ATCC 25923.
In assay [22] the test system is Salmonella enterica subsp. enterica serovar Choleraesuis ATCC 10708.
Assay [23] has as its system Pseudomonas aeruginosa ATCC 13388.
Assay [24] has as its system Escherichia coli K12 MG1655.
Assay [25] has as its system Staphylococcus epidermidis.
Assay [26] concerns Salmonella enterica subsp. enterica serovar Pullorum ATCC 7913.
For assay [27], the system named is Candida parapsilosis CGMCC 2.3989.
Assay [28] has as its system Staphylococcus aureus ATCC 29213.
Assay [29] concerns Staphylococcus aureus ATCC 43300.
The test system of assay [30] is Candida tropicalis CGMCC 2.1975.
For assay [31], the system named is Candida krusei CGMCC 2.1857.
The subject of assay [32] is Candida albicans CGMCC 2.2086.

SMILES strings stand for the structures. Values after ≈ are worked out from the molar mass of the structure shown. Values joined by “and” are separate entries in the source; they are usually repeats but may differ in a detail not shown here. Equal values may be shown once. Some results are limits rather than exact numbers.

The term MIC denotes the lowest concentration that inhibits growth of the organism.

`CC(C)[C@H](NC(=O)[C@H](C)NC(=O)[C@@H](NC(=O)CNC(=O)[C@H](C)N)[C@@H](C)O)C(=O)N[C@@H](Cc1ccccc1)C(=O)N[C@@H](CCCCN)C(=O)O` [AGTAVFK]: the MIC in assay [1] was no less than 107 µM; in assay [2], no less than 107 µM; in assay [3], no less than 321 µM; in assay [4], no less than 963 µM.
Regarding `CC(C)C[C@H](NC(=O)[C@H](CCCN=C(N)N)NC(=O)[C@H](CCCCN)NC(=O)[C@H](CCCCN)NC(=O)[C@H](CC(C)C)NC(=O)[C@H](CC(N)=O)NC(=O)[C@H](C)NC(=O)[C@H](Cc1ccccc1)NC(=O)[C@H](CCCN=C(N)N)NC(=O)[C@H](CCCN=C(N)N)NC(=O)[C@H](CCCCN)NC(=O)[C@H](Cc1ccccc1)NC(=O)[C@H](CO)NC(=O)[C@H](C)NC(=O)CNC(=O)[C@H](Cc1ccccc1)NC(=O)[C@H](CCCCN)NC(=O)[C@H](CCCCN)NC(=O)[C@H](Cc1ccccc1)NC(=O)[C@H](Cc1ccc(O)cc1)NC(=O)[C@H](CCC(=O)O)NC(=O)[C@H](CCCCN)NC(=O)[C@H](CCCN=C(N)N)NC(=O)[C@H](CCCCN)NC(=O)CNC(=O)[C@H](Cc1ccccc1)NC(=O)[C@H](Cc1ccccc1)NC(=O)CN)C(N)=O` [GFFGKRKEYFKKFGASFKRRFANLKKRL], the MIC in assay [5] was 0.7 µM (≈ 2.42 µg/mL); in the assay on Escherichia coli C600, 1.5 µM (≈ 5.18 µg/mL); in [6], 6 µM (≈ 20.7 µg/mL).
On to `CC[C@H](C)[C@H](NC(=O)[C@H](C)NC(=O)[C@H](CCCCN)NC(=O)[C@H](CCCN=C(N)N)NC(=O)CNC(=O)[C@H](Cc1ccccc1)NC(=O)[C@H](CCCCN)NC(=O)[C@H](CCCCN)NC(=O)[C@H](CCC(N)=O)NC(=O)[C@H](CC(C)C)NC(=O)[C@H](CCCCN)NC(=O)CNC(=O)[C@H](Cc1ccccc1)NC(=O)[C@H](CC(C)C)NC(=O)CN)C(=O)N[C@@H](CO)C(=O)N[C@@H](Cc1ccc(O)cc1)C(=O)N[C@@H](C)C(=O)N[C@H](C(=O)N[C@@H](CCCCN)C(=O)N[C@@H](CCCCN)C(=O)N[C@@H](C)C(=O)N[C@@H](CCCN=C(N)N)C(=O)NCC(=O)N[C@@H](CCCCN)C(=O)N[C@@H](Cc1cnc[nH]1)C(=O)O)C(C)C` [GLFGKLQKKFGRKAISYAVKKARGKH], for which the MIC in [5] was 1.5 µM (≈ 4.38 µg/mL); in the assay with Escherichia coli C600, 6 µM (≈ 17.5 µg/mL); in [6] it was no less than 36 µM.
As to `CC[C@H](C)[C@H](N)C(=O)N[C@@H](CC(N)=O)C(=O)N[C@@H](Cc1c[nH]c2ccccc12)C(=O)N[C@@H](CCCCN)C(=O)N[C@@H](CCCCN)C(=O)N[C@H](C(=O)N[C@@H](CCCCN)C(=O)N[C@@H](CCCCN)C(=O)N[C@@H](CCCCN)C(=O)N[C@H](C(=O)N[C@@H](C)C(=O)NCC(=O)N[C@@H](CCSC)C(=O)N[C@@H](CC(C)C)C(N)=O)C(C)C)[C@@H](C)CC` [INWKKIKKKVAGML], the MIC in [1] turned out to be 2.41 µM (≈ 4 µg/mL); in [7], 1.21 µM (≈ 2 µg/mL); in [8], 2.41 µM (≈ 4 µg/mL); in [9], 0.604 µM (≈ 0.999 µg/mL); in assay [10], 0.604 µM (≈ 0.999 µg/mL); in assay [11], 18.7 µM (≈ 31 µg/mL). In addition, the MIC in assay [12] was found to be 18.7 µM (≈ 31 µg/mL); in assay [13], 1.21 µM (≈ 2 µg/mL); in assay [14], 18.7 µM (≈ 31 µg/mL); in assay [15] it was 2.41 µM (≈ 4 µg/mL); in assay [16], 0.604 µM (≈ 0.999 µg/mL); in assay [17] it was 9.66 µM (≈ 16 µg/mL). The MIC stood at 2.41 µM (≈ 4 µg/mL) in assay [18]; 2.41 µM (≈ 4 µg/mL) in assay [19]; 4.83 µM (≈ 8 µg/mL) in assay [20]; 1.21 µM (≈ 2 µg/mL) in assay [21]; 18.7 µM (≈ 31 µg/mL) in [22]; 2.41 µM (≈ 4 µg/mL) in assay [23].
With `CC[C@H](C)[C@H](NC(=O)[C@H](CCCCN)NC(=O)[C@H](CCC(N)=O)NC(=O)[C@H](Cc1c[nH]c2ccccc12)NC(=O)[C@@H](NC(=O)[C@H](CCCCN)NC(=O)[C@@H](N)CCCCN)[C@@H](C)CC)C(=O)N[C@@H](CCCCN)C(=O)N[C@@H](CCCN=C(N)N)C(=O)N[C@@H](Cc1ccccc1)C(=O)N[C@@H](Cc1ccccc1)C(=O)N[C@@H](CCC(N)=O)C(=O)N[C@@H](CCCCN)C(=O)N[C@@H](CC(C)C)C(=O)O` [KKIWQKIKRFFQKL], the MIC was 50 µM (≈ 94.6 µg/mL) in [15], no less than 50 µM in assay [24], no less than 50 µM against Escherichia coli UTI89 and 7.5 µM (≈ 14.2 µg/mL) in assay [25].
Regarding `NC(=O)[C@H](CCCN=C(N)N)NC(=O)[C@H](Cc1ccccc1)NC(=O)[C@H](CCCN=C(N)N)NC(=O)[C@H](Cc1ccccc1)NC(=O)[C@H](Cc1ccccc1)NC(=O)[C@H](Cc1ccccc1)NC(=O)[C@H](CCCN=C(N)N)NC(=O)[C@H](Cc1ccccc1)NC(=O)[C@@H](N)CCCN=C(N)N` [RFRFFFRFR], the minimum inhibitory concentration (MIC) in [26] was 2 µM (≈ 2.76 µg/mL); in assay [9], 4 µM (≈ 5.51 µg/mL); against Escherichia coli 1005, 4 µM (≈ 5.51 µg/mL); in [15] it was 4 µM (≈ 5.51 µg/mL); in [17], 4 µM and > 2 µM; in assay [27] it was 16 µM (≈ 22 µg/mL). In addition, the MIC was found to be 4 µM (≈ 5.51 µg/mL) in assay [28]; 4 µM (≈ 5.51 µg/mL) in assay [29]; 4 µM (≈ 5.51 µg/mL) in assay [21]; 2 µM (≈ 2.76 µg/mL) in assay [30]; 5.66 µM (≈ 7.79 µg/mL) against Candida albicans; 4 µM (≈ 5.51 µg/mL) in [31].
As for `NC(=O)[C@H](CCCN=C(N)N)NC(=O)[C@H](CCCN=C(N)N)NC(=O)[C@H](Cc1c[nH]c2ccccc12)NC(=O)[C@H](CCCN=C(N)N)NC(=O)[C@H](Cc1c[nH]c2ccccc12)NC(=O)[C@H](Cc1c[nH]c2ccccc12)NC(=O)[C@H](Cc1c[nH]c2ccccc12)NC(=O)[C@H](CCCN=C(N)N)NC(=O)[C@H](Cc1c[nH]c2ccccc12)NC(=O)[C@H](CCCN=C(N)N)NC(=O)[C@@H](N)CCCN=C(N)N` [RRWRWWWRWRR], the MIC in assay [32] is 4 µM and 8 µM; in assay [26] it was 2 µM (≈ 3.77 µg/mL); in assay [9] it was 4 µM (≈ 7.54 µg/mL); with Escherichia coli 1005 it was 4 µM (≈ 7.54 µg/mL); in assay [15] it was 4 µM (≈ 7.54 µg/mL); in assay [27] it was 8 µM (≈ 15.1 µg/mL). Further, the MIC came to 2 µM (≈ 3.77 µg/mL) in assay [28]; 4 µM (≈ 7.54 µg/mL) in assay [29]; 4 µM (≈ 7.54 µg/mL) in assay [21]; 2 µM (≈ 3.77 µg/mL) in [30]; 4 µM (≈ 7.54 µg/mL) with Candida albicans; 2 µM (≈ 3.77 µg/mL) in assay [31].
